The text below walks through data of patent US5843758A, “Enzyme based bioremediation” (priority 1994, dated 1998).

Residue numbers refer to the chain shown, from its start.

Test [1] concerns the target T1, Lucilia cuprina LcαE7 (E3) esterase, OP susceptible allele, clone Lc743 (printed Lc473), SEQ ID NO:3 (Lucilia cuprina, UniProt Q25252).
T1 sequence (Q25252 1-570): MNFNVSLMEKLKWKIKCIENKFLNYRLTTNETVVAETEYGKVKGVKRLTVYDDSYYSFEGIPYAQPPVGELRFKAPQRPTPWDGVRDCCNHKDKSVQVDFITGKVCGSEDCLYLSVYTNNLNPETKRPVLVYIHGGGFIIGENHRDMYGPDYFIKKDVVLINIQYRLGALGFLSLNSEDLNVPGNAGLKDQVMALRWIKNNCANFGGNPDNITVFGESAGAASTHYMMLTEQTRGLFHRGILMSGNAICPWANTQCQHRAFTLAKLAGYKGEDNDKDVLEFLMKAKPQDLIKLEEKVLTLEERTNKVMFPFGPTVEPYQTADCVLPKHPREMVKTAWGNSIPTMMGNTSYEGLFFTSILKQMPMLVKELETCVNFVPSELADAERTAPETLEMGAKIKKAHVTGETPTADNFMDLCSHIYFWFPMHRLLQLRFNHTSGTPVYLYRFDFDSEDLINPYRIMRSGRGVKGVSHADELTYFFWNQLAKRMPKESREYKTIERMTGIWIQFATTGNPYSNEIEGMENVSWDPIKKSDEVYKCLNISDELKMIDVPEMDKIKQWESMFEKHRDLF
Briefly: Malathion hydrolysis / time-dependent inhibition of the enzyme by malathion. It is filed as biochemical. Particulars: in the presence of 4 μM malathion; supernatant of cells expressing the OP susceptible allele. The method, then: The susceptible (clone Lc743) and resistant (clone Lc7L103D) alleles of LcαE7 were cloned into the baculovirus transfer vector, Bacpac 8 (Clonetech), 3' of the polyhedrin promoter. Transfections were conducted using a lipofection method with polybrene (Sigma) according to King, L. A. & Possee, R. D. (The Baculovirus Expression System: A Laboratory Guide, Chapman & Hall, London, 1992). One μg of DNA of each of the resulting constructs together with 200 ng of Bacpac 6 baculovirus DNA (Clonetech), linearised by digestion with the restriction enzyme BSU 36I (Progema), was incubated in a solution of hepes buffered saline containing 0.5% polybrene (Sigma) at room temperature for 10 minutes. The solution was then used to transfect a single well of a six well tissue culture plate pre-seeded 2 hr previously with 10^4 Sf9 (Spodoptera frugiperda) cells in 1.5 ml Grace's medium (King, L. A. & Possee, R. D, The Baculovirus Expression System: A Laboratory Guide, Chapman & Hall, London, 1992). […]
Initial rates of malathion hydrolysis by the supernatant of cells expressing the OP susceptible allele, […], was 3.3 pmole/min/μl from an initial concentration of 4 μM malathion. […] Malathion hydrolysis (0.5 pmoles/min/μl) was also detected in the supernatant of cells expressing the D. melanogaster homologue, DmaE7.

Test [2] addresses T2, Lucilia cuprina LcαE7 (E3) esterase, OP resistant allele, clone Lc7L103D (Gly to Asp at amino acid position 137) (Lucilia cuprina, UniProt Q25252, form not given/G137D).
T2 sequence (Q25252 1-570 G137D): T1 sequence (Q25252 1-570) with G137D
Description: Radiometric partition assay for OP hydrolysis, enzyme expressed in vitro (baculovirus/Sf9). Type of test: biochemical. The method, then: The susceptible (clone Lc743) and resistant (clone Lc7L103D) alleles of LcαE7 were cloned into the baculovirus transfer vector, Bacpac 8 (Clonetech), 3' of the polyhedrin promoter. Transfections were conducted using a lipofection method with polybrene (Sigma) according to King, L. A. & Possee, R. D. (The Baculovirus Expression System: A Laboratory Guide, Chapman & Hall, London, 1992). One μg of DNA of each of the resulting constructs together with 200 ng of Bacpac 6 baculovirus DNA (Clonetech), linearised by digestion with the restriction enzyme BSU 36I (Progema), was incubated in a solution of hepes buffered saline containing 0.5% polybrene (Sigma) at room temperature for 10 minutes. The solution was then used to transfect a single well of a six well tissue culture plate pre-seeded 2 hr previously with 10^4 Sf9 (Spodoptera frugiperda) cells in 1.5 ml Grace's medium (King, L. A. & Possee, R. D, The Baculovirus Expression System: A Laboratory Guide, Chapman & Hall, London, 1992). After 12 hr, the medium was removed, made up to 10% DMSO and placed back over the cells for 5 minutes. This was then replaced with 3 ml of Grace's medium containing 10% fetal calf serum. Construct plus polybrene, linearised virus plus polybrene and polybrene only controls were conducted in parallel with transfections. […]

Test [3] has as its system CFVP hydrolysing enzyme (E3 esterase) in homogenate of OP-resistant L. cuprina strain RM2-6 [der-S]. Briefly: Radiometric partition assay for OP hydrolysis, whole-fly homogenate. Type of test: biochemical, Lucilia cuprina. Particulars: preliminary kinetic experiments. The method, then: Enzyme samples were diluted in 0.1M imidazole-HCl buffer pH 7.0 ("imidazole buffer") to a final volume of 25 μl. Reactions were started by the addition of 25 μl of [^14 C-ethyl]-chlorfenvinphos (CFVP, 306.5 MBq/mmole, Internationale Isotope Munchen) diluted in imidazole buffer from a 7.5 mM stock solution in ethanol. The final chlorfenvinphos concentration was typically 50 or 75 μM for routine assays but can be much lower for the determination of kinetic parameters. The reaction was incubated at 30° C. and stopped by the addition of 300 μl dichloromethane and 150 µl of imidazole buffer containing 10 μM diethylphosphate (Eastman Kodak) followed by vigourous vortex mixing. The reactions were centrifuged to separate phases and 150 μl of the upper, aqueous phase was taken for scintillation counting to determine the amount of ^14 C-diethylphosphate produced by hydrolysis of CFVP. Incubations with boiled enzyme were also performed to control for non-enzymic hydrolysis of CFVP.
(i) Whole-fly homogenates: Assays were carried out on whole-fly homogenates using 50 μM CFVP. […] The boiled control hydrolysed CFVP at a rate of 0.48 pmol/min/mg protein. Homogenates derived from an OP-susceptible strain (LS2) hydrolysed CFVP at the same rate as the boiled control, indicating the absence of CFVP hydrolytic enzymic activity in OP-susceptible L. cuprina.

As to `CCOC(=O)CC(SP(=S)(OC)OC)C(=O)OCC` (centres unmarked) [malathion], the “half-life of enzyme inhibition by malathion” value in test [1] is “about 20 minutes”.

For orientation: Km means the substrate concentration at which the rate is half of its maximum. With `CCOP(=O)(OCC)OC(=CCl)c1ccc(Cl)cc1Cl` [CFVP, chlorfenvinphos], the Km was about 16 µM in test [2] (cells expressing the Lc7L103D allele, CFVP hydrolysis, imidazole-HCl pH 7.0, 30° C., preliminary kinetic experiments, read-out: Km of the CFVP hydrolysing enzyme) and about 16 µM in test [3] (RM2-6 homogenate, CFVP hydrolysis, pH 7.0, 30° C.). Further, in test [2] (cells expressing the OP resistant allele Lc7L103D, pH 7.0, 30° C.), the “Vmax of CFVP hydrolysis” value is on record as “approximately 2.0 nmol/min/mg protein”. In addition, the “Vmax for the hydrolysis of CFVP” value in test [3] (homogenates of the resistant strain) is on record as “approximately 13 pmol/min/mg protein”.
